Legend:
[1] = biological target: T1, HMG-CoA reductase (rat liver microsomes) (Rattus norvegicus, UniProt P51639); assay: Test of activity of inhibiting HMG-CoA reductase (rate of decline of OD340); format: biochemical; conditions: final concentration in system 80 μg/mL
T1 construct: taking out liver of male rat, washing with KESD buffer solution; from tissue; host or cells: liver of male rat (microsomal fraction, glycerol/37 °C treatment, 35-50% ammonium sulfate fraction)
T1 sequence (P51639 1-887): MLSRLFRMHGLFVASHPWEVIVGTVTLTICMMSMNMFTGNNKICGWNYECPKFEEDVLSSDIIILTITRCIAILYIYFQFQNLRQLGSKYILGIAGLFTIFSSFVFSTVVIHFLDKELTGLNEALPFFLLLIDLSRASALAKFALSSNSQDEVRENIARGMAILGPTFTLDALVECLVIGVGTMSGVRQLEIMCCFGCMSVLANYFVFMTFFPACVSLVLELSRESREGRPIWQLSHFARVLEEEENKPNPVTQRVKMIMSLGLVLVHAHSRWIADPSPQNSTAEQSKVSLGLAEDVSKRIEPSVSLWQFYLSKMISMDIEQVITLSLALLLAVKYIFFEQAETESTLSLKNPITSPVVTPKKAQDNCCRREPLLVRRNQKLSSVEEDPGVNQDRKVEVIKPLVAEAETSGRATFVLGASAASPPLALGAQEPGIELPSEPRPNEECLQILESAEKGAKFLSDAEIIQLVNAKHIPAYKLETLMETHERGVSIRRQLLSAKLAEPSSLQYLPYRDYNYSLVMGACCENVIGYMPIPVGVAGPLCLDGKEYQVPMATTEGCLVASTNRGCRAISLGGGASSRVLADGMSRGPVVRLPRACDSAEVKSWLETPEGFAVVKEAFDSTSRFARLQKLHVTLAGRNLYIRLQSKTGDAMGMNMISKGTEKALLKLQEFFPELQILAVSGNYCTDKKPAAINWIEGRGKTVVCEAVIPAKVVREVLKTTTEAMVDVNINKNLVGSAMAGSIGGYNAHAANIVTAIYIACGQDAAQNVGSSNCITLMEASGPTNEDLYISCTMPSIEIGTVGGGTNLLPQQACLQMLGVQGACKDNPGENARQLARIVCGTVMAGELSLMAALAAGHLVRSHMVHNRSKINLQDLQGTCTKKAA
Procedure: Rat liver microsomes (HMG-CoA reductase), could be commercially available or prepared by the following preparation method: taking out liver of male rat, washing with KESD buffer solution, centrifuging under 1200 g for 15 minutes, collecting supernatant, then centrifuging under 105,000 g twice, 90 minutes for each time, and collecting centrifugation deposit. The centrifugation deposit was added with 8.3% of glycerol, heated with 37° C. bath for 1 hour. The crude product of rat liver microsomes was purified with saturated ammonium sulfate, and 35-50% of purified fraction was collected. The purified fraction obtained could be stored in −80° C. refrigerator.
Compound of Formula II was dissolved in 75% ethanol solution, with initial concentration of 8.0 mg/mL, and diluted in gradient manner, to reach 4.0 mg/mL, 2.0 mg/mL, 1.0 mg/mL; lovastatin was used as positive control, dissolved with 75% ethanol solution to reach concentration of 2.0 mg/mL; in the test system, total volume was 250 μL, concentrations of ingredients were separately: potassium chloride 200 mM, potassium dihydrogen phosphate 160 mM, ethylenediamine tetraacetic acid 4 mM, dithiothreitol 10 mM, […] and 3-hydroxy-3-methylglutary coenzyme A as two substrates separately had concentrations of: 200 μM and 50 μM, pH6.8, 30 μL of enzyme was added, 4 test groups were separately added with 10 μL of new compound solutions with different concentrations, the positive control group was added with 10 μL of lovastatin solution, the blank control group was added with 10 μL of 75% ethanol solution, and dynamitic changes of OD340 were detected with Versamax ELISA at 37° C. condition. The rate of decline of OD340 (expressed in slope value) as detected within 5 minutes was used to evaluate the activity of HMG-CoA reductase, and then to evaluate the activity of enzyme inhibitor and the results were shown in Table 2.

[2] = biological target: T2, Porcine pancreatic lipase (Sus scrofa, UniProt P00591); assay: Test of activity of inhibiting lipase (copper oleate colorimetry, olive oil substrate); format: biochemical, pig; conditions: final concentration of inhibitor in the system 1.85 μg/mL
T2 construct: purchased Sigma
T2 sequence (P00591 1-450): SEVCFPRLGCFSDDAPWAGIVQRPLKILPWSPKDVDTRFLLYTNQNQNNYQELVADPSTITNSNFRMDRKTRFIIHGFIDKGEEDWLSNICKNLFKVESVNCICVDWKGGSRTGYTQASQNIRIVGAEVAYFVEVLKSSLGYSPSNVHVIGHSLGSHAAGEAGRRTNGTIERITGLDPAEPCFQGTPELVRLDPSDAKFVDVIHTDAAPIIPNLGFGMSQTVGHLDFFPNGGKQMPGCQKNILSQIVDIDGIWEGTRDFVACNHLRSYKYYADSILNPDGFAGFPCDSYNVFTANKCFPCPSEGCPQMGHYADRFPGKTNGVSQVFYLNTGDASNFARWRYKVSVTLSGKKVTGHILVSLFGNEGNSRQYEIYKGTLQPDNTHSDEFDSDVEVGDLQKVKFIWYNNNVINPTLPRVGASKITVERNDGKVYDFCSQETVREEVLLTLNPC
Procedure: 2.1 Preparation of light absorbance working curve for fatty acid: a series of oleic acid-toluene solutions with different concentrations (0-3.5 mmol/L, separately being 0, 0.225, 0.45, 0.675, 0.9, 1.125, 1.35, 1.8, 2.25, 2.7, and 3.5 mmol/L), 4 mL of each was taken and placed in conical flask, added with 1 mL of color developing agent, stirred with magnetic force for 3 minutes, oleic acid molecules and copper ions formed a green complex compound, after centrifugation, organic phase of upper layer was taken and measured at 714 nm to determine light absorbance.
2.2 Enzyme solution was 0.5 mg/mL pancreatic lipase solution; buffer solution was 0.07M NaH2PO4—K2HPO4 phosphate buffer solution (pH 7.0); color developing agent was 5% copper acetate solution, which was regulated with pyridine to have pH 6.1.
3 mL of 0.07M phosphate buffer solution and 1 mL of olive oil were pre-heated at a constant temperature of 37° C. for 5 minutes in water bath under agitation with a magnetic stirrer, added with 1.3 mL of enzyme solution (negative control was that without enzyme inhibitor; positive control is that added with 100 μL of 0.1 mg/mL orlistat solution; […]), stirred with magnetic force for 10 minutes, immediately added with 8 mL of toluene, stirred continuously for 2 minutes, the reaction was terminated, the generated oleic acid was extracted. The solutions were transferred to centrifuge tube, centrifuged under 4000 rpm for 10 minutes, and the organic phase and water phase were layered and clarified. 4 mL of the upper layer organic phase was taken and placed in a small conical flask, added with 1 mL of color developing agent, stirred with magnetic stirrer for 3 minutes, the generated oleic acid reacted with copper ions to form green complex compound. After centrifugation under 4000 rpm for 10 minutes, the upper layer of toluene solution containing copper oleate was taken, and measured with a spectrophotometer at 714 nm to determine its light absorbance. A blank solution without lipase was prepared as control by the same method, and concentration of fatty acid could be determined by referring to light absorbance working curve of oleic acid.
Enzyme activity unit of lipase was defined as follows: an enzyme amount to release 1 μmol fatty acid under certain condition was defined as 1 unit of lipase activity (U).
The following formula was used to calculate enzyme activity: X=(cV)/(tV′)
wherein: X represents enzyme activity of lipase, U/mL; c represents concentration of fatty acid, […]; V represents volume of fatty acid solution, mL; V′ represents amount of enzyme solution, mL; t represents action time, minute. Inhibition rate=[(enzyme activity of lipase−enzyme activity of lipase after inhibition)/enzyme activity of lipase]×100%

| Inhibition rate [1] | Slope (rate of decline of OD340) ([1]; blank control slope 16.0) | SMILES | Absorbance ([2]; 714 nm, blank control 0.6680) | Inhibition rate [2] | Enzyme activity ([2]; blank control 1.69) | Concentration of generated oleic acid ([2]; blank control 2.75) |
| --- | --- | --- | --- | --- | --- | --- |
| 54.4% | 7.3 | CC[C@H](C)C(=O)O[C@H]1C[C@@H](C)C=C2C=C[C@H](C)[C@H](CC[C@@H]3C[C@@H](O)CC(=O)O3)[C@H]21 [Lovastatin, lovastatin, reference compound] | – | – | – | – |
| – | – | CCCCCCCCCCC[C@@H](C[C@@H]1OC(=O)[C@H]1CCCCCC)OC(=O)[C@H](CC(C)C)NC=O [Orlistat, orlistat, reference compound] | 0.2042 | 69.84% | 0.50 U/mL | 0.81 mM |

Reference: US11845774B2, “Sterol derivatives and preparation method and uses thereof” (BEIJING PEKING UNIVERSITY WBL BIOTECH CO., LTD., priority 2011, dated 2023)
